Source: ChEMBL document CHEMBL5604062, “ASAP - ZIKV NS2B-NS3 protease fluorescence dose response” (2024)
pIC50: −log10 of the molar value. “And” between values parts separate entries of the source, which are not always exact repeats. Equal values may be shown once.

What follows are compounds tested against Nonstructural protein 3 (Zika virus, UniProt A0A024AXB9) (assay: Functional biochemical assay to identify treatments for viral infectious disease that targets Zika NS2B-NS3 protease. Utilizing a direct enzyme activity measurement method, reading the fluorescence intensity is used to characterize the relative potency of inhibitors as IC50.).
Design: species or system PRVABC59

Chain of Nonstructural protein 3 (A0A024AXB9 whole entry): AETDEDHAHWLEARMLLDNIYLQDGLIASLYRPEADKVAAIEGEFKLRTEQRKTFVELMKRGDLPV

pIC50	Structure (SMILES)
5.25	Cc1cc(C(=O)Nc2ccc3c(c2)CNC3)c2cnn(C)c2n1
6.95	O=C(NC[C@H]1CCCO1)[C@H](Nc1ccc2c(c1)CNC2)c1cc(Cl)cc2[nH]ncc12
< 4.60	Cc1ccc(C)n1-c1ccc(Cl)cc1C(=O)Nc1ccc2c(c1)CNC2
7.11 and 7.18	Cc1cc(C(=O)Nc2ccc3c(c2)CNC3)c2cn[nH]c2c1
5.58	N#C[C@H](Nc1ccc2c(c1)CNC2)c1cccc2[nH]ncc12
6.56	N#Cc1cc(Cl)cc(C(=O)Nc2ccc3c(c2)CNC3)c1
6.67	Cn1cc2cc(Cl)cc(C(=O)Nc3ccc4c(c3)CNC4)c2n1
5.48	O=C(Nc1ccc2c(c1)CNC2)c1cc(Cl)cc2nccnc12
5.61	CC(C)(C)c1ccc(Cl)cc1C(=O)Nc1ccc2c(c1)CNC2
< 4.60	O=C(Nc1ccc2c(c1)CNC2)c1nc2ccccc2s1
< 4.60	Cc1cc(C(F)(F)F)cc(C(=O)Nc2ccc3c(c2)CNC3)n1
5.43	Cc1n[nH]c2nc(Cl)cc(C(=O)Nc3ccc4c(c3)CNC4)c12
5.80	CCc1ncc(Cl)cc1C(=O)Nc1ccc2c(c1)CNC2
< 4.60	O=C(Cc1cccc2[nH]ncc12)Nc1ccc2c(c1)CNC2
< 4.60	O=C(Nc1ccc2c(c1)CNC2)[C@H]1CCCc2[nH]ncc21
6.58	O=C(Nc1ccc2c(c1)CNC2)c1cc(Br)cc2[nH]c([C@H]3CCOC3)nc12
5.04	O=C(Nc1ccc2c(c1)CNC2)c1c(Br)cc(Cl)c2[nH]ncc12
6.07	O=C(Nc1ccc2c(c1)CNC2)c1cc(Cl)ccc1SC1CCCC1
< 4.60	O=C(Nc1ccc2c(c1)CNC2)c1c(Br)ccc2[nH]ncc12
5.22	O=C(Nc1ccc2c(c1)CNC2)c1nccc2[nH]ncc12
7.09 and 6.88	O=C(Nc1ccc2c(c1)CNC2)c1cc(F)cc2[nH]nnc12
5.63	CC(C)c1ccc(Cl)cc1C(=O)Nc1ccc2c(c1)CNC2

pIC50	Structure (SMILES)
5.48	Clc1cc(CNc2ccc3c(c2)CNC3)c2cn[nH]c2c1
5.64	CC(C)COc1ccc(Cl)cc1C(=O)Nc1ccc2c(c1)CNC2
5.30	O=C(Nc1ccc2c(c1)CNC2)c1cc(Cl)ccc1OC1CCCC1
5.97	NS(=O)(=O)c1cc(Cl)cc(C(=O)Nc2ccc3c(c2)CNC3)c1
5.78	O=C(Nc1ccc2c(c1)OCCNC2)c1cc(Cl)cc2[nH]ncc12
4.61	O=C(Nc1ccc2c(c1)CNC2)c1cc2ccccc2[nH]1
6.34	CCc1cc(Cl)cc(C(=O)Nc2ccc3c(c2)CNC3)c1
4.79	Cn1cnc2nc(Cl)cc(C(=O)Nc3ccc4c(c3)CNC4)c21
5.89	C[C@H](NC(=O)c1cc(Cl)cc2[nH]ncc12)c1ccc2c(c1)CNC2
7.40 and 7.31	O=C(Nc1ccc2c(c1)CNC2)c1cc(F)cc2[nH]ncc12
5.56	O=C(Nc1ccc2c(c1)CNC2)c1cc(Cl)ccc1OCC(F)(F)F
5.81	O=C(Nc1ccc2c(c1)CNC2)c1cc(Cl)nc2[nH]ncc12
6.08	O=C(Nc1ccc2c(c1)CNCCO2)c1cc(Cl)cc2[nH]ncc12
5.36	CCn1ncc2c(C(=O)Nc3ccc4c(c3)CNC4)cc(C)nc21
< 4.60	Cc1ccc2[nH]ncc2c1C(=O)Nc1ccc2c(c1)CNC2
5.60	CCS(=O)(=O)c1ccc(Cl)cc1C(=O)Nc1ccc2c(c1)CNC2
4.82 and < 4.60	O=C(Nc1ccc2c(c1)CNC2)c1ccc2scnc2c1
5.58	O=C(Nc1ccc2c(c1)CNC2)c1ccc(F)c2[nH]ncc12
< 4.60	O=C(Nc1cccc2c1CNC2)c1cc(Cl)cc2[nH]ncc12
4.80	Cc1c(C(=O)Nc2ccc3c(c2)CNC3)cc(C2CC2)n1C
5.47	Cc1ccc(C(=O)Nc2ccc3c(c2)CNC3)c2[nH]ncc12
5.45	O=C(Nc1ccc2c(c1)CNC2)c1cc(Cl)ccc1-n1ccnc1

Further lines, the compound ahead of its results:

Structure (SMILES)	pIC50
CN1CCC([C@H]2CCCN(C(=O)Nc3ccc4c(c3)CNC4)C2)CC1	< 4.60
O=C(NCC(F)F)[C@H](Nc1ccc2c(c1)CNC2)c1cc(Cl)cc(C2CC2)c1	7.62 and 7.64 and 7.21 and 7.82 and 7.77 and 7.19
Cc1cc(NC(=O)c2cc(Cl)cc3[nH]ncc23)ccc1N1CCNCC1	5.19
COc1cc(Br)cc2c1NC(=O)[C@]2(Nc1ccc2c(c1)CNC2)C(N)=O	4.70
O=C(Nc1ccc2c(c1)CNC2)N1CCC2(C1)CC(F)(F)C2	4.80
Cc1ccc(S(=O)(=O)CNC(=O)[C@H](Nc2ccc3c(c2)CNC3)c2cc(Cl)cc3[nH]ncc23)cc1	6.13
Cn1nc(C2CC2)cc1C(=O)Nc1cc(CCCN)ccn1	< 4.60
N#CCCNC(=O)[C@H](Nc1ccc2c(c1)CNC2)c1cc(Cl)cc(C2CC2)c1	7.28 and 7.43
Cc1nc(C2CC2)sc1C(=O)Nc1cc(CCCN)ccn1	< 4.60
C=C1C[C@H](c2cccc(CN)c2)[C@@H](c2cc(Cl)cc(NC(=O)OCc3ccccc3)c2)C1	< 4.60
CNC(=O)[C@H](Nc1ccc2c(c1)CNC2)c1cc(Cl)cc(C2CC2)c1	7.26 and 7.38
N#C[C@]1(Nc2ccc3c(c2)CNC3)C(=O)Nc2ccc(Cl)cc21	5.81
N#C[C@H](Nc1ccc2c(c1)CNC2)c1cc(Cl)cc(C2CC2)c1	6.76
CC(C)(C)OC(=O)N1Cc2ccc(NC(=O)c3cc(Cl)cc4[nH]ncc34)cc2C1	< 4.60
Cn1nc(C(=O)Nc2cc(CCCN)ccn2)cc1C1CC1	< 4.60
N#Cc1cc(Cl)cc([C@H](C#N)Nc2ccc3c(c2)CNC3)c1	6.36
Cc1cnc([C@H]2CCCN(C(=O)Nc3ccc4c(c3)CNC4)C2)s1	< 4.60
CCCN1C(=O)[C@](Nc2ccc3c(c2)CNC3)(C(N)=O)c2cc(Cl)ccc21	4.68
CC1(C)CN(C(=O)Nc2ccc3c(c2)CNC3)CC(F)(F)C1	< 4.60
Cc1c(C(=O)Nc2cc(CCCN)ccn2)cnn1C1CC1	< 4.60
CNC(=O)[C@]1(Nc2ccc3c(c2)CNC3)C(=O)Nc2ccc(Cl)cc21	< 4.60
CNC(=O)[C@]1(Nc2ccc3c(c2)CNC3)CCc2ccccc21	< 4.60
Cn1cc(CNC(=O)[C@H](Nc2ccc3c(c2)CNC3)c2cc(Cl)cc(C3CC3)c2)cn1	7.07 and 7.19

Structure (SMILES)	pIC50
C(#C[C@H](Nc1ccc2c(c1)CNC2)c1cccc2[nH]ncc12)c1ccccc1	< 4.60
Cn1cc2cc(C#N)cc(-c3ccc4[nH]c(C(=O)O)cc4c3)c2n1	< 4.60
Cn1cc(CCc2nc3c(C(=O)Nc4ccc5c(c4)CNC5)cc(Cl)cc3[nH]2)cn1	6.81
O=C(Nc1cnc2c(c1)CNCC2)c1cc(Cl)cc2[nH]ncc12	6.44
NCCCc1ccnc(NC(=O)c2cc(C3CC3)no2)c1	< 4.60
Cn1ncc2c(C(=O)Nc3ccc4c(c3)CNC4)cc(-c3cccnc3)nc21	< 4.60
Cc1c(C(=O)Nc2cc(CN(C)C)ccn2)cc(C2CC2)n1C	< 4.60
O=C(NC[C@H]1CCCO1)[C@H](Nc1ccc2c(c1)CNC2)c1cc(Cl)cc(C2CC2)c1	7.15 and 7.28
N#C[C@H](Nc1ccc2c(c1)CNC2)c1n[nH]c2cc(C(F)(F)F)ccc12	4.99
O=C(Nc1ccc2c(c1)CNC2)N1CCC[C@H](CC2CCC2)C1	< 4.60
COC(=O)CNC(=O)[C@H](Nc1ccc2c(c1)CNC2)c1cc(Cl)cc(C2CC2)c1	7.01 and 7.14
Cc1c(C(=O)Nc2cc(CCCN)ccn2)cc(-c2ccccc2)n1C	< 4.60
NCCCc1ccnc(NC(=O)c2cnn3c2CCC3)c1	< 4.60
O=C(NCC1CCOCC1)[C@H](Nc1ccc2c(c1)CNC2)c1cc(Cl)cc2[nH]ncc12	6.68
CNC(=O)c1ccnc(NC(=O)c2cc(C3CC3)n(C)c2C)c1	< 4.60
NCc1cc(NC(=O)c2cc(Cl)cc(NC(=O)OCc3ccccc3)c2)cc(-c2ccc(OCC(=O)O)nc2)c1	< 4.60
O=C(Nc1ccc2c[nH]nc2c1)c1cc(Cl)cc2[nH]ncc12	< 4.60
Cc1c(C(=O)Nc2cc([C@H]3CCOC3)ccn2)cc(C2CC2)n1C	6.75 and 7.09 and 6.86
O=C(NCc1ccc(F)cc1)[C@H](Nc1ccc2c(c1)CNC2)c1cc(Cl)cc2[nH]ncc12	7.11 and 7.19
COc1ccc(CN2Cc3cc(NC(=O)c4cc(Cl)cc5[nH]ncc45)cc(Br)c3C2)cc1	5.00
O=C(O)c1cc2cc(-c3cc(Cl)cc4c3O[C@H](CO)C4)ccc2[nH]1	< 4.60
COCCc1ccnc(NC(=O)c2cc(C3CC3)n(C)c2C)c1	< 4.60
O=C(Nc1ccc2c(c1)CNC2)N1C[C@H](C(F)F)C2(CC2)C1	4.61

Structure (SMILES)	pIC50
CCCN1C(=O)[C@](Nc2ccc3c(c2)CNC3)(C(=O)NC)c2ccccc21	< 4.60
COCCN(C)Cc1ccnc(NC(=O)c2cc(C3CC3)n(C)c2C)c1	< 4.60
Cc1c(C(=O)Nc2cc(CCCN)ccn2)cc(C#N)n1C	< 4.60
O=C(Nc1ccc2c(c1)CNC2)N1CC(F)(F)CC2(CCC2)C1	< 4.60
CCn1c(C)cc(C(=O)Nc2cc(CCCN)ccn2)c1C	< 4.60
NCCCc1ccnc(NC(=O)c2nnc(C3CC3)s2)c1	< 4.60
N#C[C@H](Nc1ccc2c(c1)CNC2)c1cccc2c1CCNC2=O	4.65
Cc1c(C(=O)Nc2ncc3c(c2C#N)CCOC3)cc(C2CC2)n1C	< 4.60
CC1([C@H]2CCCN(C(=O)Nc3ccc4c(c3)CNC4)C2)CC1	< 4.60
CCCN1C(=O)[C@](Nc2ccc3c(c2)CNC3)(C(=O)NC)c2cc(Cl)ccc21	< 4.60
O=Cc1ccc(N2CCC(C(=O)N3CCC(N4CCc5ccccc5C4)CC3)CC2)cc1	< 6.11
O=Cc1ccc(N2CCC(C(=O)NC[C@H](O)c3ccc(O)c(O)c3)CC2)cc1	< 4.90
O=Cc1ccc(N2CCC(C(=O)N3CCC(CCN4CCCC4)CC3)CC2)cc1	< 4.00
O=Cc1ccc(N2CCC(C(=O)NCCc3ccccc3[N+](=O)[O-])CC2)cc1	< 4.30
CCN1CCN(c2ccc(NC(=O)C3CCN(c4ccc(C=O)cc4)CC3)cc2)CC1	4.09
O=Cc1ccc(N2CCC(C(=O)NC[C@@H]3CCCN4CCCC[C@H]34)CC2)cc1	< 6.11
O=Cc1ccc(N2CCC(C(=O)NCCC3CCN(Cc4ccccc4)CC3)CC2)cc1	< 4.30
N#C[C@H](Nc1ccc2c(c1)CNC2)c1cc(Cl)cc2c1OCC2	5.61
CC1CCN(CCCCNC(=O)C2CCN(c3ccc(C=O)cc3)CC2)CC1	< 4.60
O=Cc1ccc(N2CCC(C(=O)N3CCN(c4cccc(O)c4)CC3)CC2)cc1	4.31
O=Cc1ccc(N2CCC(C(=O)N3CCN(CCc4ccccc4)CC3)CC2)cc1	< 4.30
